Key:
rice (Oryza sativa) = assay: Test B flooded paddy test, visual rating 0-100 (0 no effect, 100 complete control); settings: Flood, 250 g ai/ha, applied to paddy water, rated after 13 to 15 days
[1] = tested on: barnyardgrass (Echinochloa crus-galli); assay: Test B flooded paddy test, visual rating 0-100; settings: Flood, 250 g ai/ha, applied to paddy water, rated after 13 to 15 days
[2] = tested on: pigweed (Amaranthus retroflexus); assay: Test A preemergence, visual injury rating 0-100; type: in vivo
Description: (§1) Seeds of plant species selected from barnyardgrass (Echinochloa crus-galli), kochia (Kochia scoparia), ragweed (common ragweed, Ambrosia elatior), ryegrass, Italian (Italian ryegrass, Lolium multiflorum), foxtail, giant (giant foxtail, Setaria faberii), foxtail, green (green foxtail, Setaria viridis), and pigweed (Amaranthus retroflexus) were planted into a blend of loam soil and sand and treated preemergence with a directed soil spray using test chemicals formulated in a non-phytotoxic solvent mixture which included a surfactant.
(§2) At the same time, plants selected from these weed species and also wheat (Triticum aestivum), corn (Zea mays), blackgrass (Alopecurus myosuroides), and galium (catchweed bedstraw, Galium aparine) were planted in pots containing the same blend of loam soil and sand and treated with postemergence applications of test chemicals formulated in the same manner. Plants ranged in height from 2 to 10 cm and were in the one- to two-leaf stage for the postemergence treatment. Treated plants and untreated controls were maintained in a greenhouse for approximately 10 days, after which time all treated plants were compared to untreated controls and visually evaluated for injury. […] A dash (-) response means no test result.

[3] = tested on: ragweed (common ragweed, Ambrosia elatior); assay: Test A preemergence, visual injury rating 0-100; type: in vivo
Description: as §1, §2

[4] = tested on: foxtail, giant (giant foxtail, Setaria faberii); assay: Test A preemergence, visual injury rating 0-100; type: in vivo
Description: as §1, §2

[5] = tested on: ryegrass, Italian (Italian ryegrass, Lolium multiflorum); assay: Test A preemergence, visual injury rating 0-100; type: in vivo
Description: as §1, §2

kochia (Kochia scoparia) [6] = assay: Test A preemergence, visual injury rating 0-100; type: in vivo
Description: as §1, §2

[7] = tested on: barnyardgrass (Echinochloa crus-galli); assay: Test A preemergence, visual injury rating 0-100 (0 no effect, 100 complete control); type: in vivo
Description: as §1, §2

[8] = tested on: pigweed (Amaranthus retroflexus); assay: Test A postemergence, visual injury rating 0-100; type: in vivo; settings: 0 to 100 scale
Description: as §1, §2

[9] = tested on: ragweed (common ragweed, Ambrosia elatior); assay: Test A postemergence, visual injury rating 0-100; type: in vivo; settings: 0 to 100 scale
Description: as §1, §2

corn (Zea mays) = assay: Test A postemergence, visual injury rating 0-100; type: in vivo; settings: 0 to 100 scale
Description: as §1, §2

[10] = tested on: foxtail, giant (giant foxtail, Setaria faberii); assay: Test A postemergence, visual injury rating 0-100; type: in vivo; settings: 0 to 100 scale
Description: as §1, §2

[11] = tested on: ryegrass, Italian (Italian ryegrass, Lolium multiflorum); assay: Test A postemergence, visual injury rating 0-100; type: in vivo; settings: 0 to 100 scale
Description: as §1, §2

kochia (Kochia scoparia) [12] = assay: Test A postemergence, visual injury rating 0-100; type: in vivo; settings: 0 to 100 scale
Description: as §1, §2

[13] = tested on: wheat (Triticum aestivum); assay: Test A postemergence, visual injury rating 0-100; type: in vivo; settings: 0 to 100 scale
Description: as §1, §2

[14] = tested on: blackgrass (Alopecurus myosuroides); assay: Test A postemergence, visual injury rating 0-100; type: in vivo; settings: 0 to 100 scale
Description: as §1, §2

[15] = tested on: galium (catchweed bedstraw, Galium aparine); assay: Test A postemergence, visual injury rating 0-100; type: in vivo; settings: 0 to 100 scale
Description: as §1, §2

[16] = tested on: barnyardgrass (Echinochloa crus-galli); assay: Test A postemergence, visual injury rating 0-100; type: in vivo; settings: 0 to 100 scale
Description: as §1, §2

[17] = tested on: ducksalad (Heteranthera limosa); assay: Test B flooded paddy test, visual rating 0-100; settings: Flood, 250 g ai/ha, applied to paddy water, rated after 13 to 15 days
[18] = 31 g ai/ha, 0 to 100 scale (0 no effect, 100 complete control), approx. 10 days

| SMILES | Rice plant response rating (0 to 100 scale) (rice (Oryza sativa)) | Barnyardgrass plant response rating (0 to 100 scale) [1] | Pigweed plant response rating (0 to 100 scale) ([2]; 125 g ai/ha) | Ragweed plant response rating (0 to 100 scale) ([3]; 125 g ai/ha) | Foxtail, Giant plant response rating (0 to 100 scale) ([4]; 125 g ai/ha) | Ryegrass, Italian plant response rating (0 to 100 scale) ([5]; 125 g ai/ha) | Kochia plant response rating (0 to 100 scale) (kochia (Kochia scoparia) [6]; 125 g ai/ha) | Barnyardgrass plant response rating (0 to 100 scale) ([7]; 125 g ai/ha) | Pigweed plant response rating ([8]; 125 g ai/ha) | Ragweed plant response rating ([9]; 125 g ai/ha) | Corn plant response rating (corn (Zea mays); 125 g ai/ha) | Foxtail, Giant plant response rating ([10]; 125 g ai/ha) | Ryegrass, Italian plant response rating ([11]; 125 g ai/ha) | Kochia plant response rating (kochia (Kochia scoparia) [12]; 125 g ai/ha) | Wheat plant response rating ([13]; 125 g ai/ha) | Blackgrass plant response rating ([14]; 125 g ai/ha) | Galium plant response rating ([15]; 125 g ai/ha) | Barnyardgrass plant response rating ([16]; 125 g ai/ha) | Ducksalad plant response rating (0 to 100 scale) [17] | further results |
| --- | --- | --- | --- | --- | --- | --- | --- | --- | --- | --- | --- | --- | --- | --- | --- | --- | --- | --- | --- | --- |
| CC1=[N+]([O-])C(C(=O)Nc2cccc(F)c2F)C(c2cccc(Cl)n2)C1 (stereo not shown) [Compound 89] | 0 | 0 | 0 | 0 | 0 | 0 | 0 | 0 | 0 | 0 | 0 | 0 | 0 | 0 | 0 | 0 | 0 | 20 | 30 | Pigweed plant response rating (0 to 100 scale) ([2]; 500 g ai/ha): 0; Ragweed plant response rating (0 to 100 scale) ([3]; 500 g ai/ha): 0; Foxtail, Giant plant response rating (0 to 100 scale) ([4]; 500 g ai/ha): 30; Ryegrass, Italian plant response rating (0 to 100 scale) ([5]; 500 g ai/ha): 0; Kochia plant response rating (0 to 100 scale) (kochia (Kochia scoparia) [6]; 500 g ai/ha): 0; Barnyardgrass plant response rating (0 to 100 scale) ([7]; 500 g ai/ha): 40; Pigweed plant response rating ([8]; 500 g ai/ha): 0; Ragweed plant response rating ([9]; 500 g ai/ha): 0; Corn plant response rating (corn (Zea mays); 500 g ai/ha): 0; Foxtail, Giant plant response rating ([10]; 500 g ai/ha): 0; Ryegrass, Italian plant response rating ([11]; 500 g ai/ha): 0; Kochia plant response rating (kochia (Kochia scoparia) [12]; 500 g ai/ha): 0; Wheat plant response rating ([13]; 500 g ai/ha): 0; Blackgrass plant response rating ([14]; 500 g ai/ha): 0; Galium plant response rating ([15]; 500 g ai/ha): 0; Barnyardgrass plant response rating ([16]; 500 g ai/ha): 30 |
| CC1=[N+]([O-])C(C(=O)Nc2cccc(F)c2F)C(c2ccc(F)c(Oc3ccc(Cl)nc3)c2)C1 (racemic) [Compound 51] | 0 | 0 | 0 | 0 | 30 | 0 | 0 | 40 | 0 | 60 | 0 | 0 | 0 | 20 | 10 | 70 | 70 | 0 | 0 | Pigweed plant response rating [2, 18]: 0; Ragweed plant response rating [3, 18]: 0; Foxtail, Giant plant response rating [4, 18]: 0; Ryegrass, Italian plant response rating [5, 18]: 0; Kochia plant response rating (kochia (Kochia scoparia) [6]; [18]): 0; Barnyardgrass plant response rating [7, 18]: 0; Pigweed plant response rating ([8]; 31 g ai/ha): 0; Ragweed plant response rating ([9]; 31 g ai/ha): 0; Corn plant response rating (corn (Zea mays); 31 g ai/ha): 0; Foxtail, Giant plant response rating ([10]; 31 g ai/ha): 0; Ryegrass, Italian plant response rating ([11]; 31 g ai/ha): 0; Kochia plant response rating (kochia (Kochia scoparia) [12]; 31 g ai/ha): 0; Wheat plant response rating ([13]; 31 g ai/ha): 0; Blackgrass plant response rating ([14]; 31 g ai/ha): 0; Galium plant response rating ([15]; 31 g ai/ha): 60; Barnyardgrass plant response rating ([16]; 31 g ai/ha): 0 |
